These are literature values, as cited in PubChem BioAssay AID1259409 (Chemical Carcinogenesis Research Information System (CCRIS), 2018).

The test system of the series is rodent chemically induced tumor inhibition, incidence and multiplicity. Put plainly: CCRIS tumor inhibitor studies. The conditions noted are these: Route [Inhibitor]: ORAL, Species: HAMSTER, Promoter: NONE USED.

Turning to `CC1=C(/C=C/C(C)=C/C=C/C(C)=C/C(=O)NCCO)C(C)(C)CCC1`, the “tumour outcome (control, treated, inhibition, significance)” value reads like this: (Carcinogen: N-NITROBIS(2-OXOPROPYL)AMINE, 60559-38-4, Dose [Inhibitor]: 0.5 OR 1.0 MMOL/KG DIET DAILY STARTING 1 WK AFTER CARCINOGEN TREATMENT AND CONTINUING THROUGH THE END OF THE STUDY (STUD, Strain/Sex: SYRIAN/FEMALE, Target Tissue: Type of Lesion: LIVER: BENIGN TUMOR, Dose [Carcinogen]: 40 MG/KG BW ONCE) 4/20 (20%), 17/35 (49%), -145%, not significant; (Carcinogen: N-NITROBIS(2-OXOPROPYL)AMINE, 60559-38-4, Dose [Inhibitor]: 0.5 OR 1.0 MMOL/KG DIET DAILY STARTING 1 WK AFTER CARCINOGEN TREATMENT AND CONTINUING THROUGH THE END OF THE STUDY (STUD, Strain/Sex: SYRIAN/FEMALE, Target Tissue: Type of Lesion: ND: TOTAL TUMOR, Dose [Carcinogen]: 10 MG/KG BW ONCE) 13/23 (56%), 21/37 (57%), -2%, not significant; (Carcinogen: N-NITROBIS(2-OXOPROPYL)AMINE, 60559-38-4, Dose [Inhibitor]: 0.5 OR 1.0 MMOL/KG DIET DAILY STARTING 1 WK AFTER CARCINOGEN TREATMENT AND CONTINUING THROUGH THE END OF THE STUDY (STUD, Strain/Sex: SYRIAN/FEMALE, Target Tissue: Type of Lesion: ND: TOTAL TUMOR, Dose [Carcinogen]: 40 MG/KG BW ONCE) 17/20 (85%), 33/34 (97%), -14%, not significant; (Carcinogen: N-NITROBIS(2-OXOPROPYL)AMINE, 60559-38-4, Dose [Inhibitor]: 0.5 OR 1.0 MMOL/KG DIET DAILY STARTING 1 WK AFTER CARCINOGEN TREATMENT AND CONTINUING THROUGH THE END OF THE STUDY (STUD, Strain/Sex: SYRIAN/FEMALE, Target Tissue: Type of Lesion: PANCREAS: DUCTULAR ADENOMA, Dose [Carcinogen]: 10 MG/KG BW ONCE) 5/23 (23%), 10/37 (27%), -17%, not significant; (Carcinogen: N-NITROBIS(2-OXOPROPYL)AMINE, 60559-38-4, Dose [Inhibitor]: 0.5 OR 1.0 MMOL/KG DIET DAILY STARTING 1 WK AFTER CARCINOGEN TREATMENT AND CONTINUING THROUGH THE END OF THE STUDY (STUD, Strain/Sex: SYRIAN/FEMALE, Target Tissue: Type of Lesion: PANCREAS: DUCTULAR ADENOMA, Dose [Carcinogen]: 40 MG/KG BW ONCE) 12/20 (60%), 27/33 (82%), -37%, not significant; (Carcinogen: N-NITROBIS(2-OXOPROPYL)AMINE, 60559-38-4, Dose [Inhibitor]: 0.5 OR 1.0 MMOL/KG DIET DAILY STARTING 1 WK AFTER CARCINOGEN TREATMENT AND CONTINUING THROUGH THE END OF THE STUDY (STUD, Strain/Sex: SYRIAN/FEMALE, Target Tissue: Type of Lesion: PANCREAS: DUCTULAR CARCINOMA, Dose [Carcinogen]: 40 MG/KG BW ONCE) 6/20 (30%), 8/33 (24%), 20%, not significant. Besides, the “tumour outcome (control, treated, inhibition, significance)” value runs as follows: (Carcinogen: N-NITROBIS(2-OXOPROPYL)AMINE, 60559-38-4, Dose [Inhibitor]: 0.5 OR 1.0 MMOL/KG DIET DAILY STARTING 1 WK AFTER CARCINOGEN TREATMENT AND CONTINUING THROUGH THE END OF THE STUDY (STUD, Strain/Sex: SYRIAN/MALE, Target Tissue: Type of Lesion: LIVER: BENIGN TUMOR, Dose [Carcinogen]: 40 MG/KG BW ONCE) 5/24 (21%), 26/42 (62%), -195%, p<0.05; (Carcinogen: N-NITROBIS(2-OXOPROPYL)AMINE, 60559-38-4, Dose [Inhibitor]: 0.5 OR 1.0 MMOL/KG DIET DAILY STARTING 1 WK AFTER CARCINOGEN TREATMENT AND CONTINUING THROUGH THE END OF THE STUDY (STUD, Strain/Sex: SYRIAN/MALE, Target Tissue: Type of Lesion: ND: TOTAL TUMOR, Dose [Carcinogen]: 10 MG/KG BW ONCE) 12/20 (54%), 31/39 (79%), -46%, not significant; (Carcinogen: N-NITROBIS(2-OXOPROPYL)AMINE, 60559-38-4, Dose [Inhibitor]: 0.5 OR 1.0 MMOL/KG DIET DAILY STARTING 1 WK AFTER CARCINOGEN TREATMENT AND CONTINUING THROUGH THE END OF THE STUDY (STUD, Strain/Sex: SYRIAN/MALE, Target Tissue: Type of Lesion: ND: TOTAL TUMOR, Dose [Carcinogen]: 40 MG/KG BW ONCE) 20/24 (83%), 41/42 (98%), -18%, not significant; (Carcinogen: N-NITROBIS(2-OXOPROPYL)AMINE, 60559-38-4, Dose [Inhibitor]: 0.5 OR 1.0 MMOL/KG DIET DAILY STARTING 1 WK AFTER CARCINOGEN TREATMENT AND CONTINUING THROUGH THE END OF THE STUDY (STUD, Strain/Sex: SYRIAN/MALE, Target Tissue: Type of Lesion: PANCREAS: DUCTULAR ADENOMA, Dose [Carcinogen]: 10 MG/KG BW ONCE) 3/22 (14%), 16/37 (43%), -207%, not significant; (Carcinogen: N-NITROBIS(2-OXOPROPYL)AMINE, 60559-38-4, Dose [Inhibitor]: 0.5 OR 1.0 MMOL/KG DIET DAILY STARTING 1 WK AFTER CARCINOGEN TREATMENT AND CONTINUING THROUGH THE END OF THE STUDY (STUD, Strain/Sex: SYRIAN/MALE, Target Tissue: Type of Lesion: PANCREAS: DUCTULAR ADENOMA, Dose [Carcinogen]: 40 MG/KG BW ONCE) 8/24 (33%), 34/42 (81%), -145%, not significant; (Carcinogen: N-NITROBIS(2-OXOPROPYL)AMINE, 60559-38-4, Dose [Inhibitor]: 0.5 OR 1.0 MMOL/KG DIET DAILY STARTING 1 WK AFTER CARCINOGEN TREATMENT AND CONTINUING THROUGH THE END OF THE STUDY (STUD, Strain/Sex: SYRIAN/MALE, Target Tissue: Type of Lesion: PANCREAS: DUCTULAR CARCINOMA, Dose [Carcinogen]: 10 MG/KG BW ONCE) 4/22 (18%), 7/37 (19%), -6%, not significant. For the same molecule, the “tumour outcome (control, treated, inhibition, significance)” value reads like this: (Carcinogen: N-NITROBIS(2-OXOPROPYL)AMINE, 60559-38-4, Dose [Inhibitor]: 0.5 OR 1.0 MMOL/KG DIET DAILY STARTING 1 WK AFTER CARCINOGEN TREATMENT AND CONTINUING THROUGH THE END OF THE STUDY (STUD, Strain/Sex: SYRIAN/MALE, Target Tissue: Type of Lesion: PANCREAS: DUCTULAR CARCINOMA, Dose [Carcinogen]: 40 MG/KG BW ONCE) 5/24 (21%), 20/42 (48%), -129%, not significant; (Carcinogen: N-NITROBIS(2-OXOPROPYL)AMINE, 60559-38-4, Dose [Inhibitor]: 0.5 OR 1.0 MMOL/KG IN DIET STARTING 1 WK AFTER CARCINOGEN TREATMENT AND CONTINUING THROUGH THE END OF THE STUDY (STUDY D, Strain/Sex: SYRIAN/FEMALE, Target Tissue: Type of Lesion: LIVER: BENIGN TUMOR, Dose [Carcinogen]: 40 MG/KG BW ONCE) 4/20 (20%), 17/35 (49%), -145%, not significant; (Carcinogen: N-NITROBIS(2-OXOPROPYL)AMINE, 60559-38-4, Dose [Inhibitor]: 0.5 OR 1.0 MMOL/KG IN DIET STARTING 1 WK AFTER CARCINOGEN TREATMENT AND CONTINUING THROUGH THE END OF THE STUDY (STUDY D, Strain/Sex: SYRIAN/FEMALE, Target Tissue: Type of Lesion: PANCREAS: DUCTULAR ADENOMA, Dose [Carcinogen]: 10 MG/KG BW ONCE) 5/23 (23%), 10/37 (27%), -17%, not significant; (Carcinogen: N-NITROBIS(2-OXOPROPYL)AMINE, 60559-38-4, Dose [Inhibitor]: 0.5 OR 1.0 MMOL/KG IN DIET STARTING 1 WK AFTER CARCINOGEN TREATMENT AND CONTINUING THROUGH THE END OF THE STUDY (STUDY D, Strain/Sex: SYRIAN/FEMALE, Target Tissue: Type of Lesion: PANCREAS: DUCTULAR ADENOMA, Dose [Carcinogen]: 40 MG/KG BW ONCE) 12/20 (60%), 27/33 (82%), -37%, not significant; (Carcinogen: N-NITROBIS(2-OXOPROPYL)AMINE, 60559-38-4, Dose [Inhibitor]: 0.5 OR 1.0 MMOL/KG IN DIET STARTING 1 WK AFTER CARCINOGEN TREATMENT AND CONTINUING THROUGH THE END OF THE STUDY (STUDY D, Strain/Sex: SYRIAN/FEMALE, Target Tissue: Type of Lesion: PANCREAS: DUCTULAR CARCINOMA, Dose [Carcinogen]: 40 MG/KG BW ONCE) 6/20 (30%), 8/33 (24%), 20%, not significant; (Carcinogen: N-NITROBIS(2-OXOPROPYL)AMINE, 60559-38-4, Dose [Inhibitor]: 0.5 OR 1.0 MMOL/KG IN DIET STARTING 1 WK AFTER CARCINOGEN TREATMENT AND CONTINUING THROUGH THE END OF THE STUDY (STUDY D, Strain/Sex: SYRIAN/MALE, Target Tissue: Type of Lesion: LIVER: BENIGN TUMOR, Dose [Carcinogen]: 40 MG/KG BW ONCE) 5/24 (21%), 26/42 (62%), -195%, p<0.05. Moreover, the “tumour outcome (control, treated, inhibition, significance)” value reads like this: (Carcinogen: N-NITROBIS(2-OXOPROPYL)AMINE, 60559-38-4, Dose [Inhibitor]: 0.5 OR 1.0 MMOL/KG IN DIET STARTING 1 WK AFTER CARCINOGEN TREATMENT AND CONTINUING THROUGH THE END OF THE STUDY (STUDY D, Strain/Sex: SYRIAN/MALE, Target Tissue: Type of Lesion: PANCREAS: DUCTULAR ADENOMA, Dose [Carcinogen]: 10 MG/KG BW ONCE) 3/22 (14%), 16/37 (43%), -207%, not significant; (Carcinogen: N-NITROBIS(2-OXOPROPYL)AMINE, 60559-38-4, Dose [Inhibitor]: 0.5 OR 1.0 MMOL/KG IN DIET STARTING 1 WK AFTER CARCINOGEN TREATMENT AND CONTINUING THROUGH THE END OF THE STUDY (STUDY D, Strain/Sex: SYRIAN/MALE, Target Tissue: Type of Lesion: PANCREAS: DUCTULAR ADENOMA, Dose [Carcinogen]: 40 MG/KG BW ONCE) 8/24 (33%), 34/42 (81%), -145%, not significant; (Carcinogen: N-NITROBIS(2-OXOPROPYL)AMINE, 60559-38-4, Dose [Inhibitor]: 0.5 OR 1.0 MMOL/KG IN DIET STARTING 1 WK AFTER CARCINOGEN TREATMENT AND CONTINUING THROUGH THE END OF THE STUDY (STUDY D, Strain/Sex: SYRIAN/MALE, Target Tissue: Type of Lesion: PANCREAS: DUCTULAR CARCINOMA, Dose [Carcinogen]: 10 MG/KG BW SINGLE INJECTION) 4/22 (18%), 7/37 (19%), -6%, not significant; (Carcinogen: N-NITROBIS(2-OXOPROPYL)AMINE, 60559-38-4, Dose [Inhibitor]: 0.5 OR 1.0 MMOL/KG IN DIET STARTING 1 WK AFTER CARCINOGEN TREATMENT AND CONTINUING THROUGH THE END OF THE STUDY (STUDY D, Strain/Sex: SYRIAN/MALE, Target Tissue: Type of Lesion: PANCREAS: DUCTULAR CARCINOMA, Dose [Carcinogen]: 40 MG/KG BW ONCE) 5/24 (21%), 20/42 (48%), -129%, not significant; (Carcinogen: N-NITROSOBIS(2-OXYPROPYL)AMINE, 60599-38-4, Dose [Inhibitor]: 0.05, 0.1 OR 0.2 MILLIMOLAR/KG DIET FOR 32 WK STARTING 1 WK AFTER CARCINOGEN DOSE (STUDY DURATION: 33 WK), Strain/Sex: SYRIAN/FEMALE, Target Tissue: Type of Lesion: LIVER: ADENOMA, Dose [Carcinogen]: 40 MG/KG ONCE) 6/10 (60%), 6/29 (21%), 65%, p<0.025.
